Assay results taken from paper PMC8151276, “An Integrated Approach toward NanoBRET Tracers for Analysis of GPCR Ligand Engagement” (Molecules, 2021).

Target: T1, NPY4R (Homo sapiens, UniProt P50391)
T1 construct: purchased Promega (in-house HiBiT-GPCR construct library, NanoBRET)
Assay: NanoBRET screen HiBiT-NPY4R in HEK293
Format: binding
Procedure: Each tracer candidate was screened across the entire library of HiBiT-GPCR constructs using NanoBRET as the detection modality. As depicted in Figure 4A, the specificity of interactions was evaluated through decrease in BRET due to competitive displacement of a bound tracer by excess parental compound. Each tracer was analyzed for binding to each HiBiT-GPCR fusion in the absence and in the presence of competing parental compound. Briefly, HEK293 cells were transfected with HiBiT-GPCR constructs diluted into promoterless DNA to reduce expression and maximize translocation to the cell surface. Each tracer candidate was then screened at concentrations of 1 μM and 0.1 μM across cells expressing these fusions. Cells were treated for 1.5 h with tracer either alone or in the presence of 20 μM competing parental compound (i.e., control). BRET was measured upon addition of purified LgBiT and subsequent complementation with HiBiT genetically fused to a GPCR. The specificity of interactions was assessed through a decrease in BRET signal due to competitive displacement of the bound tracer. To further gauge the robustness of these interactions, the fold response over the control (i.e., BRETtracer/BRETcontrol) was calculated. We chose a 1.5-fold response, which translates to ≥7-fold signal over noise as the minimal threshold required to score an interaction as positive.
HiBiT-GPCR DNA constructs were diluted in 10 mM Tris pH 8 to a final concentration of 0.01 μg/μL, arrayed in 96-well plates and stored at −20 °C. For transfection, HEK293 cells were suspended in Opti-MEM (without phenol red) supplemented with 2% fetal bovine serum (Seradigm) and 100 units/mL penicillin–streptomycin (Gibco) at a final concentration of 220,000 cells/mL and dispensed into white 96-well plates at 90 μL/well. Subsequent transfections and screens were carried using an Agilent Bravo Automated Liquid Handling Platform. First, the 96-well HiBiT DNA arrays were diluted 25-fold in Opti-MEM (without serum or phenol red) to a final concentration of 0.0004 μg/μL and 20 μL of the diluted DNAs were transferred into new 96-well plates. Next, promoterless carrier DNA (1 μg/μL) was diluted 25-fold (0.04 μg/μL) and then dispensed into the diluted arrays at 20 μL/well. Following brief mixing, Viafect transfection reagent (Promega) diluted 16-fold into Opti-MEM was dispensed into the plates at 40 μL/well. After mixing by pipetting, plates were incubated for 10 min on the pipetting station deck. The DNA-transfection reagent complexes were then added to plates containing cells. To facilitate the screen, 10 μL of DNA-transfection reagent complexes were added in duplicates to the top 4 and bottom 4 rows, resulting in two identical 48-well arrays per plate. Plates with transfected cells were incubated for 18–20 h at 37 °C/5% CO2. A screen of each tracer across the entire library using two different concentrations requires duplicate plates of transfected cells. Depending on the number of tracers being screened, transfections can be scaled up using the same ratios. The next day, for each tracer, four 20× screening solutions in tracer dilution buffer (Promega) were prepared: two duplicates at final concentration of 20 μM and two duplicates at a final concentration of 2 μM. […] The four resulting solutions were diluted 4-fold in Opti-MEM without serum or phenol red to generate 5× solutions (5 µM and 0.5 µM tracer +/− 100 μM competing compound). To screen the library, a BioTek MultiFlo FX liquid dispenser was used to dispense 22.5 µL of tracer solution to the top 4 rows and 22.5 µL tracer + competing compound solution to the 4 bottom rows. Plates were briefly mixed on an orbital shaker and incubated for 1.5 h at room temperature. […] Plates were briefly mixed on an orbital shaker and incubated for 15 min to allow complementation.

T1 sequence (P50391 whole entry): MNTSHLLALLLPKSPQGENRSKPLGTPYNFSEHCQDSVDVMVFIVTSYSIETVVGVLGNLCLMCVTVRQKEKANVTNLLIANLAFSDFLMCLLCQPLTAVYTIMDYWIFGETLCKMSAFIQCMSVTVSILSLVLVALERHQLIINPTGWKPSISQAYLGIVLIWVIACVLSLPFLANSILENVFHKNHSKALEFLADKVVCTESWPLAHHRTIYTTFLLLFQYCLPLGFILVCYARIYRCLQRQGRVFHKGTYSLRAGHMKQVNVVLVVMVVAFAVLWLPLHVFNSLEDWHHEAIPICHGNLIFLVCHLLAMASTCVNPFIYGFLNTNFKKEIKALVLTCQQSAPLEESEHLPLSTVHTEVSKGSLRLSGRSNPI

Structure (SMILES) | NanoBRET Fold Response (NPY4R, tracer 0.1μM) | NanoBRET Fold Response (NPY4R, tracer 1μM) | other results
O=C(CCc1ccc2n1[B-](F)(F)[N+]1=C(c3ccc[nH]3)C=CC1=C2)NCc1ccc(C(=O)NCCOCCC(=O)N[C@@H]2CC[C@@]3(O)[C@H]4Cc5ccc(O)c6c5[C@@]3(CCN4CC3CC3)[C@H]2O6)cc1 [Naltrexone-3-NB590] | 1.04 | 0.91 | 
CCCn1c(=O)c2[nH]c(-c3ccc(OCC(=O)NCCNC(=O)CCOCCNC(=O)c4ccc(CNC(=O)CCc5ccc6n5[B-](F)(F)[N+]5=C(c7ccc[nH]7)C=CC5=C6)cc4)cc3)nc2n(CCC)c1=O [XAC-3-NB590] | 0.97 | 0.86 | 
CC(C)N(CC[C@H](c1ccccc1)c1cc(CCNC(=O)c2ccc(CNC(=O)CCc3ccc4n3[B-](F)(F)[N+]3=C(c5ccc[nH]5)C=CC3=C4)cc2)ccc1O)C(C)C [Tolterodine-BZ-NB590] | 0.88 | 0.98 | 
COc1ccc2[nH]c(-c3ccc(CNC(=O)CCOCCOCCOCCOCCNC(=O)CCc4ccc5n4[B-](F)(F)[N+]4=C(c6ccc[nH]6)C=CC4=C5)cc3)c(CCNC(C)=O)c2n1 [AzomelatoninICO9-2-NB590] |  |  | NanoBRET Fold Response (0.1μM tracer): 1.11; NanoBRET Fold Response (1μM tracer): 0.94
COc1ccccc1N1CCN(CCCCN2C(=O)c3ccc(CNC(=O)CCOCCNC(=O)c4ccc(CNC(=O)CCc5ccc6n5[B-](F)(F)[N+]5=C(c7ccc[nH]7)C=CC5=C6)cc4)cc3C2=O)CC1 [NAN-190-3-NB590] | 1.06 | 0.95 | 
Cc1nc2n(c(=O)c1CCN1CCC(c3noc4cc(F)ccc34)CC1)CCCC2OC(=O)NCCOCCOCCOCCOCCNC(=O)CCc1ccc2n1[B-](F)(F)[N+]1=C(c3ccc[nH]3)C=CC1=C2 (stereo not shown) [Risperidone-2-NB590] | 0.95 | 1.02 | 
O=C(CCOCCOCCOCCOCCNC(=O)CCc1ccc2n1[B-](F)(F)[N+]1=C(c3ccc[nH]3)C=CC1=C2)NCCCN1CCN(C2=Nc3ccccc3Oc3ccc(Cl)cc32)CC1 [Loxapine-a-2-NB590] | 0.99 | 1.10 | 
COc1ccccc1N1CCN(CCCCN2C(=O)c3ccc(CNC(=O)CCOCCOCCOCCOCCNC(=O)CCc4ccc5n4[B-](F)(F)[N+]4=C(c6ccc[nH]6)C=CC4=C5)cc3C2=O)CC1 [NAN-190-2-NB590] | 0.95 | 1.04 | 
CC(C)N(CC[C@H](c1ccccc1)c1cc(CCNC(=O)CCOCCOCCOCCOCCNC(=O)CCc2ccc3n2[B-](F)(F)[N+]2=C(c4ccc[nH]4)C=CC2=C3)ccc1O)C(C)C [Tolterodine-2-NB590] | 0.86 | 1.09 | 
N#CN=C(NCCCOc1cccc(CN2CCCCC2)c1)NCCNC(=O)CCOCCOCCOCCOCCNC(=O)CCc1ccc2n1[B-](F)(F)[N+]1=C(c3ccc[nH]3)C=CC1=C2 [Aminopotentidine-2-NB590] | 1.01 | 0.98 | 
CCOC(=O)c1cc(C#N)c(N2CCC(C(=O)NS(=O)(=O)Cc3ccccc3/C=C/C(=O)NCCNC(=O)CCc3ccc4n3[B-](F)(F)[N+]3=C(c5ccc[nH]5)C=CC3=C4)CC2)nc1C [AZD1283-1-NB590] |  |  | NanoBRET Fold Response (NPY4R, 0.1μM): 1.02; NanoBRET Fold Response (NPY4R, 1μM): 1.03
CN(C)CCC=C1c2ccccc2CCc2ccc(C(=O)NCCNC(=O)CCOCCOCCOCCOCCNC(=O)CCc3ccc4n3[B-](F)(F)[N+]3=C(c5ccc[nH]5)C=CC3=C4)cc21 [Amitriptyline-b-2-NB590] |  |  | NanoBRET Fold Response (tracer at 1μM, listed as amitriptyline-b-2-NB590): 1.03
CN(C)CCC=C1c2ccccc2CCc2ccc(C(=O)NCCNC(=O)CCOCCOCCOCCOCCNC(=O)CCc3ccc4n3[B-](F)(F)[N+]3=C(c5ccc[nH]5)C=CC3=C4)cc21 [Amitriptyline-a-2-NB590] |  |  | NanoBRET Fold Response (tracer at 0.1μM): 1.11; NanoBRET Fold Response (tracer at 1μM): 0.96
O=C(CCc1ccc2n1[B-](F)(F)[N+]1=C(c3ccc[nH]3)C=CC1=C2)NCCOCCOCCNC(=O)OCCOCCN1CCN(C2=Nc3ccccc3Sc3ccccc32)CC1 [Quetiapine-a-2-NB590] | 1.06 | 0.73 | 
Cc1cc2c(s1)Nc1ccccc1N=C2N1CCN(CCCNC(=O)CCOCCOCCOCCOCCNC(=O)CCc2ccc3n2[B-](F)(F)[N+]2=C(c4ccc[nH]4)C=CC2=C3)CC1 [Olanzapine-a-2-NB590] | 1.01 | 0.91 | 
CN1CCN(C2=Nc3cc(Cl)ccc3Nc3ccc(CNC(=O)CCOCCOCCOCCOCCNC(=O)CCc4ccc5n4[B-](F)(F)[N+]4=C(c6ccc[nH]6)C=CC4=C5)cc32)CC1 [Clozapine-b-2-NB590] |  |  | NanoBRET Fold Response (NPY4R, 0.1μM tracer): 1.02; NanoBRET Fold Response (NPY4R, 1μM tracer): 1.08
COc1ccc2c(n1)c(CCNC(C)=O)cn2CCNC(=O)CCc1ccc2n1[B-](F)(F)[N+]1=C(c3ccc[nH]3)C=CC1=C2 [Azamelatonin-1-NB590] |  |  | NanoBRET Fold Response (0.1μM tracer): 1.11; NanoBRET Fold Response (1μM tracer): 1.08
O=C(CCc1ccc2n1[B-](F)(F)[N+]1=C(c3ccc[nH]3)C=CC1=C2)NCc1ccc(C(=O)NCCOCCOCCNCC(O)COc2cccc3ccccc23)cc1 (stereo not shown) [Propranolol-3-NB590] |  |  | NanoBRET Fold Response (NPY4R, 0.1μM): 0.98; NanoBRET Fold Response (NPY4R, 1μM): 0.99
O=C(CCOCCOCCOCCOCCNC(=O)CCc1ccc2n1[B-](F)(F)[N+]1=C(c3ccc[nH]3)C=CC1=C2)NCCCN1CCN(C2=Nc3cc(Cl)ccc3Nc3ccccc32)CC1 [Clozapine-a-2-NB590] |  |  | NanoBRET Fold Response (NPY4R, 0.1μM tracer): 0.88; NanoBRET Fold Response (NPY4R, 1μM tracer): 1.40
